Test results taken from US6716978B2, “Therapeutically active compounds based on indazole bioisostere replacement of catechol in PDE4 inhibitors” (Pfizer Inc, priority 1997, dated 2004).

Row | melting point | Structure (SMILES)
1 | 214 to 216 °C | CCc1nn(-c2ccc(F)cc2)c2cc(C3=CCC(C(=O)O)CC3)ccc12 (centres unmarked) [Example 24, 4-(3-ethyl-1-(4-fluorophenyl)-1H-indazol-6-yl)-cyclohex-3-ene-carboxylic acid]
2 | 72 to 73 °C | CCc1nn(-c2ccc(F)cc2)c2cc(Br)ccc12 [Example 20, 6-Bromo-3-ethyl-1-(4-fluorophenyl)-1H-indazole]
